Results on 8 compounds are retold here after ChEMBL document CHEMBL1145498, “A systematic interaction map of validated kinase inhibitors with Ser/Thr kinases” (Proc Natl Acad Sci U S A, 2007).

Assay [1] has as its target Dual specificity mitogen-activated protein kinase kinase 2 (Homo sapiens, UniProt P36507).
For assay [2], the target named is Dual specificity protein kinase CLK1 (Homo sapiens) (UniProt P49759).
The target in assay [3] is T1, 3-phosphoinositide-dependent protein kinase 1 (Homo sapiens) (UniProt O15530).
T1 sequence (whole entry): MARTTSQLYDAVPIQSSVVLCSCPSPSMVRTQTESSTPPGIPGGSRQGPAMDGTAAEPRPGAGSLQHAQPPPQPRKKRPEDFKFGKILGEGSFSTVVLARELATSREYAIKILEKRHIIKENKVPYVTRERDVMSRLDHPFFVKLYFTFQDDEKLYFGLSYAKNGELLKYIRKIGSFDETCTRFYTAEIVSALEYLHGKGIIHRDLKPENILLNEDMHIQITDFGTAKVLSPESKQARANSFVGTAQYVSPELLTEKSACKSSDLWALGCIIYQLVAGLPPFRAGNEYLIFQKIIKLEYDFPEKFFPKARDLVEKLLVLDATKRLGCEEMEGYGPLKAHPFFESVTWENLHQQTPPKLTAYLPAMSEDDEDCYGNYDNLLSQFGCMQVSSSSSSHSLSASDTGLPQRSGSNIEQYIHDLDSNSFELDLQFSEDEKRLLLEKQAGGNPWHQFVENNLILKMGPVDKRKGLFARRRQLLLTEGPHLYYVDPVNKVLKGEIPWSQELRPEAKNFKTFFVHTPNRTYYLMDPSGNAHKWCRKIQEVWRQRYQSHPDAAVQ

The target of assay [4] is Serine/threonine-protein kinase OSR1 (Homo sapiens) (UniProt O95747).
Sequence of Serine/threonine-protein kinase OSR1 (Homo sapiens) (O95747 2-527 limits assumed): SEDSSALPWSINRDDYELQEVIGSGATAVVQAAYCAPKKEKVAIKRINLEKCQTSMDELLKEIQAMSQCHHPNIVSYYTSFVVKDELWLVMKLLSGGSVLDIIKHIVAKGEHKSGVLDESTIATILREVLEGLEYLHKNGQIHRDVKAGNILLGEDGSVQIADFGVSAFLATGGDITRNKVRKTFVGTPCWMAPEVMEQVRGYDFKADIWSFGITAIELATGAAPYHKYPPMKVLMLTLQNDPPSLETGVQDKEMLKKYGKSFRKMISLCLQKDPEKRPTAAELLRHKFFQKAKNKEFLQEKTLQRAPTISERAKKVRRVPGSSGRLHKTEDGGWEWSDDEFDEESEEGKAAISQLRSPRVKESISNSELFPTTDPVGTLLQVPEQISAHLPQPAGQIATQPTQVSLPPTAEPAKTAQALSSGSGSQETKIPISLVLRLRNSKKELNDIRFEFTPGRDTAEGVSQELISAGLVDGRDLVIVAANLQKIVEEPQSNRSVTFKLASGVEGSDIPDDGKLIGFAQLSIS
Assay [5] concerns the target Casein kinase I isoform gamma-2 (Homo sapiens) (UniProt P78368).
Assay [6] concerns the target cAMP-dependent protein kinase catalytic subunit alpha (Homo sapiens) (UniProt P17612).
The target in assay [7] is Serine/threonine-protein kinase pim-3 (Homo sapiens) (UniProt Q86V86).
Assay [8] deals with Casein kinase I isoform gamma-3 (Homo sapiens) (UniProt Q9Y6M4).
Sequence of Casein kinase I isoform gamma-3 (Homo sapiens) (Q9Y6M4 whole entry, looked up, canonical isoform): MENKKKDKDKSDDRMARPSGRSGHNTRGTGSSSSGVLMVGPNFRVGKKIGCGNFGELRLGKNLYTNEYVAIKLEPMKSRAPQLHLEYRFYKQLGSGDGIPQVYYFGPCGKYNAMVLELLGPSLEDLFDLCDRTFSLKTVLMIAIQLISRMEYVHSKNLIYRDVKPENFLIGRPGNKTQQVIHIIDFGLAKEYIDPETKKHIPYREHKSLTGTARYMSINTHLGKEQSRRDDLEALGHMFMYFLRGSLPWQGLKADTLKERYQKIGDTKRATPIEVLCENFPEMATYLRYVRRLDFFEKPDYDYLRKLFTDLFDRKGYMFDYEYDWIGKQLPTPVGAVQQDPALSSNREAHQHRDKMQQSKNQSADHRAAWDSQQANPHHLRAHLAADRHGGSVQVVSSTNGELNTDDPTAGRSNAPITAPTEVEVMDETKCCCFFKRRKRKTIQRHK
The target in assay [9] is Dual specificity protein kinase CLK3 (Homo sapiens) (UniProt P49761).
Sequence of Dual specificity protein kinase CLK3 (Homo sapiens) (P49761 whole entry, looked up): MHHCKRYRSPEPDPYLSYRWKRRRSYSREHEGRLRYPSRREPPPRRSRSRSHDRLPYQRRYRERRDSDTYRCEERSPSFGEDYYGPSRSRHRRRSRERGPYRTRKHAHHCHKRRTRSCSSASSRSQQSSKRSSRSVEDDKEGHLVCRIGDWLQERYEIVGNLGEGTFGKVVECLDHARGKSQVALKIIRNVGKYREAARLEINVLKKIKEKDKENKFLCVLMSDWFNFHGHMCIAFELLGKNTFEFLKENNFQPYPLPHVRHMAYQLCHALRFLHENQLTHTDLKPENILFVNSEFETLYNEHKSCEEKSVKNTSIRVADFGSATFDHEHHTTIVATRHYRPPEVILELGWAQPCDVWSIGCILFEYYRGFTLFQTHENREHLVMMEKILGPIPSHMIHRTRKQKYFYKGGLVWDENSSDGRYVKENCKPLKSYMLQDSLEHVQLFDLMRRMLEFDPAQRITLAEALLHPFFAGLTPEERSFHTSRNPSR
Assay [10] addresses T2, Lymphokine-activated killer T-cell-originated protein kinase (Homo sapiens) (UniProt Q96KB5).
T2 sequence (whole entry): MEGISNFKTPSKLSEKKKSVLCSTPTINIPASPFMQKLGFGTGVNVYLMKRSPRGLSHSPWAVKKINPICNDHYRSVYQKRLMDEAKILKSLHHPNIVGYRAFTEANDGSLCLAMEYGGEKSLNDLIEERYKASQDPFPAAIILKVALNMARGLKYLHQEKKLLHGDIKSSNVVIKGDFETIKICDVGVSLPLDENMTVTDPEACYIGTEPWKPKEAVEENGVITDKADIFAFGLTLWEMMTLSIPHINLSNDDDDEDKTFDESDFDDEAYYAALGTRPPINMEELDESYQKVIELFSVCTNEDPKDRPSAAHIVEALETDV

Assay [11] addresses Cyclin-dependent kinase 16 (Homo sapiens) (UniProt Q00536).
Assay [12] has as its target STE20-like serine/threonine-protein kinase (Homo sapiens) (UniProt Q9H2G2).
In assay [13] the target is T3, Serine/threonine-protein kinase PLK4 (Homo sapiens) (UniProt O00444).
T3 sequence (whole entry): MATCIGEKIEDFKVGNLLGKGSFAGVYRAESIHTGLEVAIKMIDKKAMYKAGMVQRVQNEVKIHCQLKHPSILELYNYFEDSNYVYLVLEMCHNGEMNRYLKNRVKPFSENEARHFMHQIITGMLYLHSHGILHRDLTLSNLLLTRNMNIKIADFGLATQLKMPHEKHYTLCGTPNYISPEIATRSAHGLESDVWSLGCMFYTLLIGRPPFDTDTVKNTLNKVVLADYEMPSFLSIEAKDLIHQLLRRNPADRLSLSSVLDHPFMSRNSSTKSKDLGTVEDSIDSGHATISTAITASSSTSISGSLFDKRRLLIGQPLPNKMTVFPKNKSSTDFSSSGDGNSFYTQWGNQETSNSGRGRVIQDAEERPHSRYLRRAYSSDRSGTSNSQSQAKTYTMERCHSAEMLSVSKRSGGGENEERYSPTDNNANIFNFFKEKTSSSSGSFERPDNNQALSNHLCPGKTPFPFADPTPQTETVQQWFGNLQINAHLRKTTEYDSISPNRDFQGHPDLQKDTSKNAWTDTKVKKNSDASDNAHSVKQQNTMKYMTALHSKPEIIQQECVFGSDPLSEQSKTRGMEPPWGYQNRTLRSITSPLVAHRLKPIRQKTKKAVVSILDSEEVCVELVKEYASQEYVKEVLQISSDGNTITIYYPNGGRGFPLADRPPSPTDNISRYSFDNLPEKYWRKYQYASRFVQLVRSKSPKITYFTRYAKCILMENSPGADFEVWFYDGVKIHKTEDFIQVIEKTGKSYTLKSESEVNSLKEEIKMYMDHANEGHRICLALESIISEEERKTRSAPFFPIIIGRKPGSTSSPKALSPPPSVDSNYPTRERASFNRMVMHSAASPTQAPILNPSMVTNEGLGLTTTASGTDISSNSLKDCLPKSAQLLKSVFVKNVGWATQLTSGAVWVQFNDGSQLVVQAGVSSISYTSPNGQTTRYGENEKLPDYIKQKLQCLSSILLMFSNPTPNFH

The target of assay [14] is Calcium/calmodulin-dependent protein kinase type 1D (Homo sapiens) (UniProt Q8IU85).
Sequence of Calcium/calmodulin-dependent protein kinase type 1D (Homo sapiens) (Q8IU85 whole entry, looked up): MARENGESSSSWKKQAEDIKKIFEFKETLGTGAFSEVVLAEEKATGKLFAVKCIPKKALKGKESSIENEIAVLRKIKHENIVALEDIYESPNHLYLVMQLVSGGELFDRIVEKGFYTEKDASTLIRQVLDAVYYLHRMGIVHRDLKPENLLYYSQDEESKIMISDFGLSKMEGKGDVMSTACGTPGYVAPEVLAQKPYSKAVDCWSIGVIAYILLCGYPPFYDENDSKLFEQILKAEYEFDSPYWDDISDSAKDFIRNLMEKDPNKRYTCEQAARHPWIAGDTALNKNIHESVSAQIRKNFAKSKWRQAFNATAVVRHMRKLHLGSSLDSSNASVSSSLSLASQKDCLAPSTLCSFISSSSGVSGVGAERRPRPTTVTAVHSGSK
The target of assay [15] is Dual specificity protein kinase CLK2 (Homo sapiens) (UniProt P49760).
Assay [16] addresses Mitogen-activated protein kinase 6 (Homo sapiens) (UniProt Q16659).
Assay [17] has as its target Serine/threonine-protein kinase RIO2 (Homo sapiens) (UniProt Q9BVS4).

Sequence of STE20-like serine/threonine-protein kinase (Homo sapiens) (Q9H2G2 whole entry, looked up): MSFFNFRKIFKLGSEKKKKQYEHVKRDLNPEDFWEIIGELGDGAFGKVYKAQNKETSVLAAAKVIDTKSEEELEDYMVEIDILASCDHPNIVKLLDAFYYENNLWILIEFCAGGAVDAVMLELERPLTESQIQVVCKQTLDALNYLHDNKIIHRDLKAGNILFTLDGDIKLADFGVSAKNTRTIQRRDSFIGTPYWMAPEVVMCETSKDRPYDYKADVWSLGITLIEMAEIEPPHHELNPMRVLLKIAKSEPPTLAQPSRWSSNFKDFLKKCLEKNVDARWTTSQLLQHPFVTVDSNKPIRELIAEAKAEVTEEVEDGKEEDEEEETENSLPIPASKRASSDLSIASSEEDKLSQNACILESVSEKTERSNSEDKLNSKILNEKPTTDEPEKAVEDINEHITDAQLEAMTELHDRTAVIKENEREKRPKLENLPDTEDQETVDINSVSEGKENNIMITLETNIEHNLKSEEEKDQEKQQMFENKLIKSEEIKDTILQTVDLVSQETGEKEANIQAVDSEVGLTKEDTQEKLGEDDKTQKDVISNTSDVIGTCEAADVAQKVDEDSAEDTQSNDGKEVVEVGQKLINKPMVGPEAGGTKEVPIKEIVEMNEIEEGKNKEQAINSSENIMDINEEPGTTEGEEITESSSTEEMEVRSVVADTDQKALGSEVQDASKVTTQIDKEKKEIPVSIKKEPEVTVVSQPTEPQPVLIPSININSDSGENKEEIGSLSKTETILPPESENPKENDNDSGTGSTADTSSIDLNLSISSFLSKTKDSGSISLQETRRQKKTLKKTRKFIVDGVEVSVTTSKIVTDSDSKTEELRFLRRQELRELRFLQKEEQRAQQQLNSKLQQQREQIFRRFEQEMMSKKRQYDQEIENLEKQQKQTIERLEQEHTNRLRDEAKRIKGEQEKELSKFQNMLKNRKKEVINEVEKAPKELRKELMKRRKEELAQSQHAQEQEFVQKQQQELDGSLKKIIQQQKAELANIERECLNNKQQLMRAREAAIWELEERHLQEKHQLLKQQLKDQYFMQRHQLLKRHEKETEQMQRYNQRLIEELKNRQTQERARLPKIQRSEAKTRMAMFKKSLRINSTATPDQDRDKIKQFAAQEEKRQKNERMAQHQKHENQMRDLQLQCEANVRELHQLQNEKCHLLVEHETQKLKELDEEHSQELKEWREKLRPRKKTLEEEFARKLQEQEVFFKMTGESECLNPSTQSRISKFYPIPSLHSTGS
Sequence of Cyclin-dependent kinase 16 (Homo sapiens) (Q00536 whole entry): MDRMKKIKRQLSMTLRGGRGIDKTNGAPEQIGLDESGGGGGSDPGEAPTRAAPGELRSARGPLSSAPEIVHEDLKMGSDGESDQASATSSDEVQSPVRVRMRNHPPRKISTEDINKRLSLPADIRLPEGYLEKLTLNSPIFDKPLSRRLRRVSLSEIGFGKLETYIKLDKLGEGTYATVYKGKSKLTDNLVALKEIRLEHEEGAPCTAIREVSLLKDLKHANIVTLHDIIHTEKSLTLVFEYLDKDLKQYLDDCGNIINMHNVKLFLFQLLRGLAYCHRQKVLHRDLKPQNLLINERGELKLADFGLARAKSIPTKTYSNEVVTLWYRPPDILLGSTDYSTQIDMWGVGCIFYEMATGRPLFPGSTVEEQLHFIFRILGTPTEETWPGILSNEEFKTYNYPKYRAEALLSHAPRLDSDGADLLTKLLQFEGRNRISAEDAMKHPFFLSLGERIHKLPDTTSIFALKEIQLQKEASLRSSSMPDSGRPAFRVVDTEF
Sequence of Dual specificity protein kinase CLK1 (Homo sapiens) (P49759 whole entry, looked up): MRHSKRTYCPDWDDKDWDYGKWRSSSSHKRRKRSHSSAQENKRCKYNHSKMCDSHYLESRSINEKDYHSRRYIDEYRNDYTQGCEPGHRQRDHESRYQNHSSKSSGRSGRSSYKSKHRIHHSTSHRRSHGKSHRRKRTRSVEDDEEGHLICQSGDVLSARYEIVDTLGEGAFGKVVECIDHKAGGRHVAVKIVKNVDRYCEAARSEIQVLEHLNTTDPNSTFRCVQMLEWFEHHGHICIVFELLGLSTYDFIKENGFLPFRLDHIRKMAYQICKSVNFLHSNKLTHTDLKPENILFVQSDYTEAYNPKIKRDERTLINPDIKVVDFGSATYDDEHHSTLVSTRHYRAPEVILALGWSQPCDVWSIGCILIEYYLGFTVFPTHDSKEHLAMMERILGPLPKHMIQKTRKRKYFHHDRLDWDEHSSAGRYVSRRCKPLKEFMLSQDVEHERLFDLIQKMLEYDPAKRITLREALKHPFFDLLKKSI
Sequence of Serine/threonine-protein kinase RIO2 (Homo sapiens) (Q9BVS4 whole entry, looked up): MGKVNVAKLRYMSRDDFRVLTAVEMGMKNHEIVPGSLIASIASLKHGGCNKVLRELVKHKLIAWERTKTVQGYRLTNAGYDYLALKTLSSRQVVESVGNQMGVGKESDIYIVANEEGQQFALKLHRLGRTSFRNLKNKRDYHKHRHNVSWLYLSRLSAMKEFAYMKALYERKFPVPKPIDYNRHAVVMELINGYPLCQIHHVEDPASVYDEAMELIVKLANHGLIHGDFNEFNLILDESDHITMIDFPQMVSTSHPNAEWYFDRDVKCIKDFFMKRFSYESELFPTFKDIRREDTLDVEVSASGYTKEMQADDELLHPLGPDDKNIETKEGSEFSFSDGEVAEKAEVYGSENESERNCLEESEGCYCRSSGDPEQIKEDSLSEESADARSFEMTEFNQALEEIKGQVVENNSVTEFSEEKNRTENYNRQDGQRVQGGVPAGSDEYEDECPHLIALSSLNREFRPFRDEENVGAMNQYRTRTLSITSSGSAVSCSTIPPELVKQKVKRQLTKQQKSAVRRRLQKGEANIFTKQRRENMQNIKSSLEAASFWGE

In the case of `N#C/C(=C1/Nc2ccccc2S1)c1ccnc(NCCc2cccnc2)n1`, the ΔTm (commonly the change in melting temperature against a reference sample) was 3.8 °C in assay [1]; 5.9 °C in [2]; -0.1 °C in assay [3]; 1.4 °C in assay [4]; 2.5 °C in [5]; 1.6 °C in assay [6]. Also, the shift in melting temperature (ΔTm) in assay [7] came to 10.9 °C; in assay [8] it was 3.4 °C; in assay [9], 4.9 °C; in assay [10] it was 0.8 °C; in assay [11] it was 5.8 °C; in assay [12] it was 1.8 °C. The ΔTm in assay [13] was 5.2 °C; in [14] it was 1.4 °C; in [15], 4.4 °C; in assay [16], 2 °C; in assay [17], 7 °C.
Consider `CC(C)n1cnc2c(NCc3ccccc3)nc(NCCCO)nc21`, for which the ΔTm in [1] was -0.3 °C; in assay [2], 2.6 °C; in [3], 0.1 °C; in [4], 0.3 °C; in assay [5], 1.1 °C; in [6] it was 0.3 °C. Besides, the thermal shift (ΔTm) in [7] is 1 °C; in assay [8], 1.1 °C; in assay [9] it was 1 °C; in assay [10] it was 0.2 °C; in assay [11], -0.5 °C; in assay [12] it was 0.4 °C. In addition, the ΔTm in [13] is 0.3 °C; in [14], 0.1 °C; in assay [15], 2.2 °C; in [16], -0.3 °C; in assay [17], 0.4 °C.
Turning to `COc1cc2ncnc(Nc3cccc(Br)c3)c2cc1OC`, the ΔTm was determined as 0.3 °C in [1]; 1.7 °C in assay [2]; 0 °C in assay [3]; 0.6 °C in [4]; 0.6 °C in [5]; 0.4 °C in assay [6]. Moreover, the ΔTm in assay [7] was 1.6 °C; in assay [8], -0.1 °C; in [9], 0.2 °C; in assay [10], 0.3 °C; in [11], -0.9 °C; in [12], 6.9 °C. Besides, the thermal shift (ΔTm) in assay [13] was 3.4 °C; in [14], 0.3 °C; in assay [15], 0.7 °C; in assay [16], -0.1 °C; in [17], 1.2 °C.
For the compound `Cc1cncc2cccc(S(=O)(=O)N3CCCNC[C@@H]3C)c12`, the ΔTm in assay [1] was -0.3 °C; in assay [2], 3 °C; in assay [3] it was -0.2 °C; in [4] it was 0.6 °C; in [5] it was 0.6 °C; in [6] it was 3.5 °C. In addition, the ΔTm in assay [7] is 0.8 °C; in [8] it was 0.2 °C; in assay [9] it was 2.6 °C; in assay [10], 1 °C; in assay [11] it was -0.6 °C; in assay [12], 2.9 °C. The thermal shift (ΔTm) was determined as 7 °C in assay [13]; 0.9 °C in assay [14]; 1.8 °C in [15]; 0 °C in [16]; 0.4 °C in assay [17].
`CCOc1cc(/C=C(\C#N)C(N)=O)cc(CSc2ccccc2)c1O`: the ΔTm worked out at 0.4 °C in assay [1]; 0 °C in assay [2]; 0 °C in [3]; 0.9 °C in [4]; 0.7 °C in assay [5]; 1 °C in assay [6]. Also, the thermal shift (ΔTm) in assay [7] is 1.5 °C; in assay [8] it was 0.4 °C; in assay [9], 0.3 °C; in assay [10], 0.5 °C; in assay [11], -0.5 °C; in [12], 0.5 °C. Further, the ΔTm in assay [13] was 2.8 °C; in [14], -0.2 °C; in assay [15], 0.2 °C; in assay [16] it was 0.1 °C; in [17] it was 0.1 °C.
For `O=c1c(-c2ccc(F)cc2)c(-c2ccncc2)[nH]n1-c1ccc(Cl)cc1`, the shift in melting temperature (ΔTm) in assay [1] was 1.9 °C; in assay [2], 1 °C; in assay [3], -1.2 °C; in assay [4] it was 0.2 °C; in [5], 0.7 °C; in assay [6], 1.5 °C. Further, the ΔTm in assay [7] was found to be 0.5 °C; in assay [8], 0.5 °C; in assay [9], 0.3 °C; in [10], 0.8 °C; in assay [11], 0.3 °C; in assay [12], 2.4 °C. The ΔTm in assay [13] was 1 °C; in [14] it was 0.1 °C; in assay [15] it was 0.8 °C; in [16], 0.7 °C; in assay [17], -0.2 °C.
As to `O=C1C=C2C(=Nc3c2c2c(c4c3=NC3=C4CCC=C3)C=NC=2)CC1`, the ΔTm is 3.1 °C in assay [1]; 3.1 °C in assay [2]; -0.3 °C in [3]; 2.1 °C in assay [4]; 1.4 °C in assay [5]; 2.1 °C in assay [6]. The ΔTm in assay [7] was 1.7 °C; in assay [8], 0.8 °C; in assay [9], 2.3 °C; in assay [10] it was 0.9 °C; in assay [11], 0.8 °C; in [12], 6.4 °C. Besides, the ΔTm in [13] was found to be 2.3 °C; in assay [14], 3.6 °C; in assay [15], 4.2 °C; in [16], 1.4 °C; in assay [17], 4.7 °C.
Turning to `COc1cc2ncnc(Nc3ccc(F)c(Cl)c3)c2cc1OCCCN1CCOCC1`, the ΔTm was 0.2 °C in assay [1]; 0.7 °C in [2]; -0.5 °C in [3]; 0.2 °C in assay [4]; -0.2 °C in [5]; 1.1 °C in assay [6]. The ΔTm in [7] was -0.2 °C; in [8], 0.3 °C; in assay [9], 0.8 °C; in assay [10] it was 0.6 °C; in assay [11], -0.3 °C; in [12], 7.8 °C. The ΔTm in [13] worked out at 0 °C; in assay [14], 0.4 °C; in assay [15], 0 °C; in assay [16] it was 0.8 °C; in assay [17], 2 °C.
